For one assay, the target named is JAK2 (Homo sapiens (Human), UniProt O60674). Kind of assay: pSTAT5 Cell Assay (MSD, TF1 cells). The assay is classed as cell-based. The conditions noted are these: MSD. As to the method: Compounds of the disclosure were assessed for their ability to inhibit the JAK2 kinase activity on STAT5 utilizing an MSD-platform plate-based assay format. TF1 cells natively expressing STAT5 and JAK2 were serum-starved to reduce background phosphorylation levels, then cells were treated with compounds of disclosure for 1 hour with a 10-point four-fold dilution series starting at 10 μM. Cells were then stimulated with 30 ng/mL IL-3 for 15 minutes. Cells were then lysed and pSTAT5 levels were quantitated using an MSD plate-based assay with anti-STAT5 antibodies. The data were normalized and the percent activity versus log concentration of compound was fitted with a 4-parameter logistic model to generate a curve and an IC50 value.

The target of the next assay is JAK1 (Homo sapiens (Human), UniProt P23458). Kind of assay: pSTAT3 Cell Assay (MSD, TF1 cells). The assay is classed as cell-based. The conditions noted are these: MSD. The method, then:
The inhibitory potency of compounds of the disclosure against the JAK1 kinase activity on STAT3 was evaluated using an MSD-platform plate-based assay format. TF1 cells natively expressing STAT3 and JAK1 were serum-starved to reduce background phosphorylation levels, then cells were treated with compounds of the disclosure for 1 hour with a 10-point four-fold dilution series starting at 10 μM. Cells were then stimulated with 30 ng/mL interleukin 6 (IL-6) for 15 minutes. Cells were lysed and pSTAT3 levels were quantitated using an MSD plate-based assay with anti-STAT3 antibodies. The data were normalized and the percent activity versus log concentration of compound was fitted with a 4-parameter logistic model to generate IC50 curves.

In another assay the target is JH2 domain of human Tyk2 (Homo sapiens (Human), UniProt P29597). Briefly: JH2 Biochemical Assay (TR-FRET probe displacement). Format: binding. A general note: In TR-FRET formats the signal depends on donor and acceptor labels being close together.
The next assay deals with Tyk2 (Homo sapiens (Human), UniProt P29597). Kind of assay: pSTAT4 Cell Assay (MSD, NK92 cells). The conditions noted are these: MSD. Format: cell-based.
Setting [1] is: TR-FRET probe displacement, JH2 domain of human Tyk2.

Sequence of Tyk2 (P29597 whole entry, the tested form may be a part): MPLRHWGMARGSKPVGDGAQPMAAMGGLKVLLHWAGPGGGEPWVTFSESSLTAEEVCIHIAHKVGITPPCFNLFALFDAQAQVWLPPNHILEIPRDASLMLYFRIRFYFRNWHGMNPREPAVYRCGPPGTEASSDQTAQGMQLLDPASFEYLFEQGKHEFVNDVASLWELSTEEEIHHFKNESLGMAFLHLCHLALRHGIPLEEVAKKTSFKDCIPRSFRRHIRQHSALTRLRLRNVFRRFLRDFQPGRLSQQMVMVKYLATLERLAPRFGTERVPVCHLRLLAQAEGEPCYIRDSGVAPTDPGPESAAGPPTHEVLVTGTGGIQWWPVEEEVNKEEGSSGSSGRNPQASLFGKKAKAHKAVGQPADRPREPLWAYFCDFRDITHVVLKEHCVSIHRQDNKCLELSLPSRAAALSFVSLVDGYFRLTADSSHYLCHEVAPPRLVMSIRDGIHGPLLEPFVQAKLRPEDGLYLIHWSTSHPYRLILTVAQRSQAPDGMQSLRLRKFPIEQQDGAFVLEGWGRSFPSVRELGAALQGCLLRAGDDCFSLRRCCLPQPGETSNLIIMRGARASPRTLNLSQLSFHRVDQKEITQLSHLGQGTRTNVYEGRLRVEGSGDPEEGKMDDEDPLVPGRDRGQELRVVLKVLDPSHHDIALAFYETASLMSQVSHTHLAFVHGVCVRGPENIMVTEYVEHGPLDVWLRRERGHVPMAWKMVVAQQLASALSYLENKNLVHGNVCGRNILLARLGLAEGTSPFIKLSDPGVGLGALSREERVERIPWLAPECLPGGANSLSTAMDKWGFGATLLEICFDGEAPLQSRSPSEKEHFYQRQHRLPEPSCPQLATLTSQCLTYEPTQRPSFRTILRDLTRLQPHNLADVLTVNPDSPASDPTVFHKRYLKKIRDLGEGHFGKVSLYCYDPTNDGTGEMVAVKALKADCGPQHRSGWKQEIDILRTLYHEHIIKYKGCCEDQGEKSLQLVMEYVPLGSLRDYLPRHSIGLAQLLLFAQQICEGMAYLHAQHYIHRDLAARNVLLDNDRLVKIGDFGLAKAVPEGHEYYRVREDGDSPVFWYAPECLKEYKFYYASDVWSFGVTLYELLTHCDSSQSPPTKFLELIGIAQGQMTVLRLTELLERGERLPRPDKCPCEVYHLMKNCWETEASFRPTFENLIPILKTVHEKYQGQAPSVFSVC
Sequence of JH2 domain of human Tyk2 (P29597 575-876): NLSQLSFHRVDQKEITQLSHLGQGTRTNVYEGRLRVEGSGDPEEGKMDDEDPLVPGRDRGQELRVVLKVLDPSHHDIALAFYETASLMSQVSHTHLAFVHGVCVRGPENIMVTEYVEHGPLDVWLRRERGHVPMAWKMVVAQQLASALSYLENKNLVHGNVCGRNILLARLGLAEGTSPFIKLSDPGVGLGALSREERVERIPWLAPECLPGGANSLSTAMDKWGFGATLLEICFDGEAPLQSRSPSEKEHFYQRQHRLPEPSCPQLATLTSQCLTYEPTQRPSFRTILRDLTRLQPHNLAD
Sequence of JAK2 (O60674 whole entry): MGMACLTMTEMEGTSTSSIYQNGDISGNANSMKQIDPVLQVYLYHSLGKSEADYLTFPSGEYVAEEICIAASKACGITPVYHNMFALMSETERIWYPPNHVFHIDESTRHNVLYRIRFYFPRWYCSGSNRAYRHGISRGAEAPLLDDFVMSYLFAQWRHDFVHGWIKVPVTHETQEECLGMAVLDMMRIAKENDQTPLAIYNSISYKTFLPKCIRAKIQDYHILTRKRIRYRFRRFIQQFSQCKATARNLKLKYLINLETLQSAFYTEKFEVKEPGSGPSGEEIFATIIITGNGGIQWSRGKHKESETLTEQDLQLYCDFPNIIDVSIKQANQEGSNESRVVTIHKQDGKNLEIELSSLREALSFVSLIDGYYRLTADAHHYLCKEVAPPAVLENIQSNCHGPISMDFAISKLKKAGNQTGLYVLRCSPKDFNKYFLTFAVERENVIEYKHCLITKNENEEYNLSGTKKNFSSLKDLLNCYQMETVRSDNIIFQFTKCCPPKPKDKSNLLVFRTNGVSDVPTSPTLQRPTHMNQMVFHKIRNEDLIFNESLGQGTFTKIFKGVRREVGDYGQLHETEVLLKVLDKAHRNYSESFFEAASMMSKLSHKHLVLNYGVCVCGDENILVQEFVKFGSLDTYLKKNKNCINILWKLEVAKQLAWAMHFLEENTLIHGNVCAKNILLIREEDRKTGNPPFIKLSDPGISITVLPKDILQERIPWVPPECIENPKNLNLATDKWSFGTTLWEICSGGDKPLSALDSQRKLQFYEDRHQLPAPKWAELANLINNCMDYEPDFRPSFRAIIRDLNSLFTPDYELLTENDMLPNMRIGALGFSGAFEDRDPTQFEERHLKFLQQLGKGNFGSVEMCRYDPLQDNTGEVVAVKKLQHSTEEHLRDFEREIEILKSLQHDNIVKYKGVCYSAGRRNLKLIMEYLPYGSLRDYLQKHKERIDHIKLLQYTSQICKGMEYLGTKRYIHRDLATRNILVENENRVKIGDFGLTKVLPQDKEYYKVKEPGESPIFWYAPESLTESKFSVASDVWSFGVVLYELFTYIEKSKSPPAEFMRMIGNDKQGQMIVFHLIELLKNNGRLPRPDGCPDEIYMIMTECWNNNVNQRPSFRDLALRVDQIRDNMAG
Sequence of JAK1 (P23458 whole entry): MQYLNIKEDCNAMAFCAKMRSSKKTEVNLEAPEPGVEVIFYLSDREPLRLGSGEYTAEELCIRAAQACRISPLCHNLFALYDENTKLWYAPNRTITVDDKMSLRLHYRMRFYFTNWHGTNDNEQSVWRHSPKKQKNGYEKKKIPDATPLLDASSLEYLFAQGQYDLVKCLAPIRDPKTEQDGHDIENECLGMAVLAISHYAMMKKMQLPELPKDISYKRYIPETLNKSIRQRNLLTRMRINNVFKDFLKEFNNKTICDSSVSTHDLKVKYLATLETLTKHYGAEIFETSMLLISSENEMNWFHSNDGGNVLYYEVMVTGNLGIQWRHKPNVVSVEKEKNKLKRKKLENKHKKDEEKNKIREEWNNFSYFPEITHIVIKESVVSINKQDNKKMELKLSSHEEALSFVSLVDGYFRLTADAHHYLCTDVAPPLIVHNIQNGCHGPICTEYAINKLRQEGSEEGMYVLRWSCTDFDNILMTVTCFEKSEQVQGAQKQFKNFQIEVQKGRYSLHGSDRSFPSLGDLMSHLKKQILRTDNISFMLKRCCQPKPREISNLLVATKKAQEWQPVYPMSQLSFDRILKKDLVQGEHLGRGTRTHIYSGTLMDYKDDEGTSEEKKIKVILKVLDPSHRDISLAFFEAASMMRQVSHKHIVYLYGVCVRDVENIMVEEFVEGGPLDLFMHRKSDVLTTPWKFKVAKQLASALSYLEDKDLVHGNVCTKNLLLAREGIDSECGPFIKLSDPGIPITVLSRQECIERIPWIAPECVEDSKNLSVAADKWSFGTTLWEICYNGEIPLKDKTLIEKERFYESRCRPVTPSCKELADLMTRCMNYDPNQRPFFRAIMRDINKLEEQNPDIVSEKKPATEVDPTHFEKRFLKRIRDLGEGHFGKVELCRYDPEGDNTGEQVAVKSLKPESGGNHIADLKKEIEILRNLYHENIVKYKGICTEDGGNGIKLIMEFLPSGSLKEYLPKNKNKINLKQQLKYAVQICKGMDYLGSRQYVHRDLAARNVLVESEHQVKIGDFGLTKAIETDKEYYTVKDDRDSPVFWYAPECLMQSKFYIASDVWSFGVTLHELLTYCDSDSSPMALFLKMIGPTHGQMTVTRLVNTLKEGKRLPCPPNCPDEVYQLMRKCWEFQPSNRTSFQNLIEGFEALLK

The IC50 is the concentration that inhibits the measured activity by half. A higher IC50 goes with weaker potency in that assay. As to `CC(=O)Nc1cc(Nc2cc(OC3CC3)nc(C(C)(F)F)n2)c(OC[C@H]2COCCO2)cn1` (single isomer, unassigned) [Example 454, (R)-N-(5-((1,4-dioxan-2-yl)methoxy)-4-((6-cyclopropoxy-2-(1,1-difluoroethyl)pyrimidin-4-yl)amino)pyridin-2-yl)acetamide or (S)-N-(5-((1,4-dioxan-2-yl)methoxy)-4-((6-cyclopropoxy-2-(1,1-difluoroethyl)pyrimidin-4-yl)amino)pyridin-2-yl)acetamide], the IC50 was at least 1000 nM against JAK2 (IL-3 stimulated); at least 1000 nM against JAK1 (IL-6 stimulated); at most 10 nM on JH2 domain of human Tyk2 (JH2 domain of human Tyk2, TR-FRET probe displacement); at most 10 nM at Tyk2.

Regarding `CCOc1cnc(NC(C)=O)cc1Nc1cccc(C(C)(F)F)n1` [Example 1, N-(4-((6-(1,1-difluoroethyl)pyridin-2-yl)amino)-5-ethoxypyridin-2-yl)acetamide], the IC50 at JAK2 (IL-3 stimulation) is at least 1000 nM; at JAK1 (IL-6 stimulation), at least 1000 nM; on JH2 domain of human Tyk2 (setting [1]), at most 10 nM; against Tyk2, at most 10 nM.

`CCOc1cnc(NC(C)=O)cc1Nc1nccc(C(C)(F)F)n1` [Example 3, N-(4-((4-(1,1-difluoroethyl)pyrimidin-2-yl)amino)-5-ethoxypyridin-2-yl)acetamide]: the IC50 against JAK2 (IL-3 stimulation) was at least 1000 nM; on JAK1 (IL-6 stimulation), at least 1000 nM; on JH2 domain of human Tyk2 (setting [1]) it was at most 10 nM; at Tyk2, 10 to 100 nM.

For the compound `CCOc1cnc(NC(C)=O)cc1Nc1ccnc(C(C)(F)F)n1` [Example 4, N-(4-((2-(1,1-difluoroethyl)pyrimidin-4-yl)amino)-5-ethoxypyridin-2-yl)acetamide], the 50% inhibitory concentration (IC50) on JAK2 (IL-3 stimulation) is at least 1000 nM; against JAK1 (IL-6 stimulation) it was at least 1000 nM; at JH2 domain of human Tyk2 (setting [1]) it was at most 10 nM; at Tyk2, 10 to 100 nM.

For `CCOc1cnc(NC(C)=O)cc1Nc1cc(OC)nc(C(C)(F)F)n1` [Example 5, N-(4-((2-(1,1-difluoroethyl)-6-methoxypyrimidin-4-yl)amino)-5-ethoxypyridin-2-yl)acetamide], the 50% inhibitory concentration (IC50) at JAK2 (IL-3 stimulation) is at least 1000 nM; against JAK1 (IL-6 stimulation), at least 1000 nM; on JH2 domain of human Tyk2 (setting [1]), at most 10 nM; at Tyk2, 10 to 100 nM.

`CCOc1cnc(NC(C)=O)cc1Nc1cc(C)nc(C(C)(F)F)n1` [Example 10, N-(4-((2-(1,1-difluoroethyl)-6-methylpyrimidin-4-yl)amino)-5-ethoxypyridin-2-yl)acetamide]: the IC50 at JAK2 (IL-3 stimulation) is at least 1000 nM; against JAK1 (IL-6 stimulation) it was at least 1000 nM; at JH2 domain of human Tyk2 (setting [1]), at most 10 nM; against Tyk2, 10 to 100 nM.

For the compound `CC(=O)Nc1cc(Nc2cc(C)nc(C(C)(F)F)n2)c(OCC2CC2)cn1` [Example 11, N-(5-(cyclopropylmethoxy)-4-((2-(1,1-difluoroethyl)-6-methylpyrimidin-4-yl)amino)pyridin-2-yl)acetamide], the IC50 was at least 1000 nM against JAK2 (IL-3 stimulation), at least 1000 nM against JAK1 (IL-6 stimulation), at most 10 nM at JH2 domain of human Tyk2 (setting [1]) and 10 to 100 nM at Tyk2.

On to `CCOc1cnc(NC(C)=O)cc1Nc1cc(CC)nc(C(C)(F)F)n1` [Example 12, N-(4-((2-(1,1-difluoroethyl)-6-ethylpyrimidin-4-yl)amino)-5-ethoxypyridin-2-yl)acetamide], for which the concentration for half-maximal inhibition (IC50) is at least 1000 nM against JAK2 (IL-3 stimulation), at least 1000 nM against JAK1 (IL-6 stimulation), at most 10 nM on JH2 domain of human Tyk2 (setting [1]) and 10 to 100 nM against Tyk2.

As for `CCOc1cnc(NC(C)=O)cc1Nc1cc(C2CC2)nc(C(C)(F)F)n1` [Example 13, N-(4-((6-cyclopropyl-2-(1,1-difluoroethyl)pyrimidin-4-yl)amino)-5-ethoxypyridin-2-yl)acetamide], the half-maximal inhibitory concentration (IC50) on JAK2 (IL-3 stimulation) was at least 1000 nM; against JAK1 (IL-6 stimulation) it was at least 1000 nM; on JH2 domain of human Tyk2 (setting [1]), at most 10 nM; against Tyk2 it was 10 to 100 nM.

Consider `CCOc1cnc(NC(C)=O)cc1Nc1cc(O[C@H]2C[C@H](OC)C2)cc(C(C)(F)F)n1` [Example 14, N-(4-((6-(1,1-difluoroethyl)-4-((1r,3r)-3-methoxycyclobutoxy)pyridin-2-yl)amino)-5-ethoxypyridin-2-yl)acetamide], for which the IC50 is at least 1000 nM against JAK2 (IL-3 stimulation), at least 1000 nM against JAK1 (IL-6 stimulation), at most 10 nM on JH2 domain of human Tyk2 (setting [1]) and 10 to 100 nM at Tyk2.

For the origin of these results see US20260028365A1 (BIOGEN MA INC., priority 2022, published 2026).
